# Assay results: publication PMC12528448, “Resistance to CDK7 inhibitors directed by acquired mutation of a conserved residue in cancer cells” (The EMBO Journal, 2025)
# Where “and” joins values, the source holds several entries; their conditions need not be identical. Equal entries are not always repeated.
# Tests used:
# Assay type in all cases: cell-based, human
# MCF7 cells = assay: Growth assay (SRB), MCF7; settings: for % Growth: biological reps
# Method: (§1) To determine the IC50 of drug treatments on growth, cells were seeded in 96-well culture plates. Two days after seeding, the cells were treated with increasing concentrations of drugs and incubated for 4 days. Cell number was determined using the SRB assay (Skehan et al, [1990]), and IC50 values were calculated using non-linear regression curve fitting in GraphPad Prism v10. For all other growth experiments, cells were seeded into 96-well plates, and appropriate drugs were added 2 days after seeding. Cells were then incubated in an IncuCyte Zoom live-cell imager, with cell confluency measured every 6 h. Cell doubling times were determined by non-linear curve fitting (exponential growth equation) in GraphPad Prism v10.
# [1] = test system: MCF7 CDK12-D819N mutant cells; assay: Growth assay (SRB), MCF7 CDK12-D819N knock-in; settings: for % Growth: MCF7 CDK12 D819N, biological reps
# Method: as §1
# Alt-R^TM S.p. Cas9 nuclease V3, Alt-R CRISPR-Cas9 crRNA, TracrRNA and the donor templates were obtained from Integrated DNA Technologies. […] Cells were treated with 0.7 µM of Alt-R HDR Enhancer V2 to improve HRD efficiency. Sequences of the CRISPRs in the crRNA and the donor templates are shown in the Reagents and tools table. Donor templates were designed to include non-coding substitutions to aid genome DNA PCR for identifying knock-in events and to facilitate cloning; these substitutions are noted in the Reagents and tools table.
# [2] = test system: PolII Ser2 phosphorylation, CCNK and CDK12 levels in MCF7-CDK12-D819N cells; assay: Immunoblotting after CDK12 drugs, MCF7-CDK12-D819N; settings: 6 h, immunoblot
# Method: (§2) Whole-cell lysates were prepared in RIPA buffer (Sigma-Aldrich), supplemented with protease and phosphatase inhibitor cocktails (Roche). Protein sample concentrations were determined using the Pierce BCA Protein Assay kit (ThermoFisher Scientific). In all, 10–20 µg of total protein was loaded for each sample and resolved on 4–15% Mini-PROTEAN TGX Precast Protein Gels (BIO-RAD). Immunoblotting was performed as described (Patel et al, [2018]), using antibodies diluted 1:1000 for P-CDK2 (Thr160; 2561S), CDK2 (2546S), P-Rb (Ser807/811; 9308), Rb (9309), CDK7 (2916) and CDK12 (11973S), from Cell Signalling Technology. PolII CTD phosphorylation antibodies (P-Ser2 (ab5095) and P-Ser5 (ab5131), used at 1:10,000 dilution), as well as total PolII (ab817; 1:2000 dilution) and β-actin (ab6276; 1:100,000 dilution) were purchased from Abcam. CCNK antibody (Thermofisher A301-939A) was used at a 1:1000 dilution. Band intensities were quantified using ImageJ (Schneider et al, [2012]).
# [3] = test system: PolII Ser2 phosphorylation, cyclin K and CDK12 levels in MCF7 cells; assay: Immunoblotting after CDK12 drugs, MCF7; settings: WT MCF7; 6 h; immunoblot
# Method: as §2
smiles,measurement,setting,value
CC[C@H](CO)Nc1nc(NCc2ccc(-c3ccccn3)cc2)c2ncn(C(C)C)c2n1 [(R)-CR8],IC50,"MCF7 cells; 4 days, SRB",84.5 nM
same,% Growth,"MCF7 cells; Log10 Conc. (nM) 0.09, 4 days",113.64% and 90.46% and 92.99%
same,% Growth,"MCF7 cells; Log10 Conc. (nM) 0.69, 4 days",122.04% and 94.84% and 85.58%
same,% Growth,"MCF7 cells; Log10 Conc. (nM) 1.29, 4 days",76.32% and 89.54% and 75.98%
same,% Growth,"MCF7 cells; Log10 Conc. (nM) 1.89, 4 days",57.39% and 71.11% and 59.97%
same,% Growth,"MCF7 cells; Log10 Conc. (nM) -0.52, 4 days",115.95% and 88.99% and 104.00%
same,% Growth,"MCF7 cells; Log10 Conc. (nM) -1.12, 4 days",101.40% and 88.53% and 107.01%
same,Fold Resistance,[1]; MCF7 CDK12-D819N vs MCF7,12.6 fold
same,IC50,"[1]; MCF7 CDK12-D819N, SRB",1060 nM
same,% Growth,[1]; Log10 Conc. (nM) 0.09,94.80% and 70.33% and 88.48%
same,% Growth,[1]; Log10 Conc. (nM) 0.69,98.42% and 96.39% and 105.30%
same,% Growth,[1]; Log10 Conc. (nM) 1.29,84.25% and 91.23% and 97.75%
same,% Growth,[1]; Log10 Conc. (nM) 1.89,95.93% and 89.18% and 103.58%
same,% Growth,[1]; Log10 Conc. (nM) 2.49,84.48% and 84.10% and 82.39%
same,% Growth,[1]; Log10 Conc. (nM) -0.52,97.14% and 75.33% and 99.34%
same,% Growth,[1]; Log10 Conc. (nM) -1.12,97.97% and 74.35% and 85.17%
same,CCNK and CDK12 levels,[2],not reduced
same,PolII phosphorylation,[2],not inhibited
same,Levels of cyclin K and CDK12,[3],reduced
same,PolII Ser2 phosphorylation,[3],reduced
